Measurements published in ChEMBL document CHEMBL1128110, “Enantiodifferentiation of dihydropyridine PAF antagonists” (Bioorg Med Chem Lett, 1995).
Each block holds one compound with its values, some of them ahead of it.

Columns and labels:
[1] = test system: Mus sp.; test: In vivo for PAF antagonist activity in mice after oral administration; type: functional
[2] = Oral bioavailability in dog; type: ADME, organism-based, Canis lupus familiaris; settings: in vivo
[3] = Plasma half life was evaluated in Dog; type: ADME, organism-based, Canis lupus familiaris
[4] = Half life was evaluated in dog; type: ADME, organism-based, Canis lupus familiaris; settings: in vivo
[5] = Inhibition of [3H]nitrendipine binding to dihydropyridine sites of bovine frontal cortex membranes; type: tissue-based, Bos taurus
[6] = organism: Rattus norvegicus; test: Calcium channel blocking activity in K+ stimulated rat aorta assay; type: functional
[7] = Plasma half life was evaluated; type: ADME, organism-based, Canis lupus familiaris; settings: dog
[8] = Plasma half life was evaluated in dog; type: ADME, organism-based, Canis lupus familiaris

SMILES: CCO/C(O)=C1\C(COCCn2c(C)nc3ccccc32)=NC(C)=C(C(=O)Nc2ccccn2)C1c1ccccc1Cl (stereo unspecified)
ED50 ([1]; Mus sp., po, read-out: ED50): 49 mg/kg

bioavailability [2]: 30% | half-life [3]: 1.2 h
SMILES: CCO/C(O)=C1\C(COCCn2c(C)nc3ccccc32)=NC(C)=C(C(=O)NC(C)(C)C)C1c1ccccc1Cl (stereo unspecified)
ED50 ([1]; Mus sp., po, read-out: ED50): 34 mg/kg

half-life [4]: 4.4 h | bioavailability [2]: 9%
SMILES: CCO/C(O)=C1\C(COCCn2c(C)nc(C)c2C)=NC(C)=C(C(=O)Nc2cccc(C)n2)C1c1ccccc1Cl (stereo unspecified)
ED50 ([1]; Mus sp., po, read-out: ED50): 4.5 mg/kg

IC50 [5]: 41 nM | IC50 [6]: 12 nM
SMILES: CCO/C(O)=C1\C(COCCn2c(C)nc(C)c2C)=NC(C)=C(C(=O)OC)[C@@H]1c1ccccc1Cl

SMILES: CCO/C(O)=C1\C(COCCn2c(C)nc(C)c2C)=NC(C)=C(C(=O)NC(C)(C)C)C1c1ccccc1Cl (stereo unspecified)
ED50 ([1]; Mus sp., po, read-out: ED50): 10.1 mg/kg

bioavailability [2]: 4% | half-life [7]: 0.75 h
SMILES: CCO/C(O)=C1\C(COCCn2c(C)nc3cnccc32)=NC(C)=C(C(=O)Nc2ccccn2)C1c1ccccc1Cl (stereo unspecified)
ED50 ([1]; Mus sp., po, read-out: ED50): 2 mg/kg

SMILES: CCO/C(O)=C1\C(COCCn2c(C)nc3cccnc32)=NC(C)=C(C(=O)Nc2ccccn2)C1c1ccccc1Cl (stereo unspecified)
ED50 ([1]; Mus sp., po, read-out: ED50): 25 mg/kg

IC50 [5]: > 10000 nM | IC50 [6]: > 1000 nM
SMILES: CCO/C(O)=C1\C(COCCn2c(C)nc(C)c2C)=NC(C)=C(C(=O)OC)[C@H]1c1ccccc1Cl

SMILES: CCO/C(O)=C1\C(COCCn2c(C)nc3ccncc32)=NC(C)=C(C(=O)Nc2ccccn2)C1c1ccccc1Cl (stereo unspecified)
ED50 ([1]; Mus sp., po, read-out: ED50): 29 mg/kg

SMILES: CCO/C(O)=C1\C(COCCn2c(C)nc3ncccc32)=NC(C)=C(C(=O)Nc2ccccn2)C1c1ccccc1Cl (stereo unspecified)
ED50 ([1]; Mus sp., po, read-out: ED50): 31 mg/kg

SMILES: CCO/C(O)=C1\C(COCCn2c(C)nc(C)c2C)=NC(C)=C(C(=O)Nc2ccccc2)C1c1ccccc1Cl (stereo unspecified)
ED50 ([1]; Mus sp., po, read-out: ED50): 18 mg/kg

IC50 [5]: 96 nM | IC50 [6]: 14 nM
SMILES: CCO/C(O)=C1\C(COCCn2c(C)nc(C)c2C)=NC(C)=C(C(=O)OC)C1c1ccccc1Cl (stereo unspecified)

SMILES: CCOC(=O)C1=C(c2ccc(-n3c(C)nc4cnccc43)cc2)NC(C)=C(C(=O)Nc2ccccn2)C1c1ccccc1Cl (single isomer, unassigned; (+))
ED50 [1]: 0.15 mg/kg

SMILES: CCOC(=O)C1=C(c2ccc(-n3c(C)nc4cnccc43)cc2)NC(C)=C(C(=O)Nc2ccccn2)C1c1ccccc1Cl (single isomer, unassigned; (-))
ED50 [1]: 3.8 mg/kg

bioavailability [2]: 100% | half-life [8]: 1.2 h
SMILES: CCOC(=O)C1=C(c2ccc(-n3c(C)nc4cnccc43)cc2)NC(C)=C(C(=O)Nc2ccccn2)C1c1ccccc1Cl (stereo in doubt; 18)
ED50 [1]: 0.26 mg/kg
